This is an account of results in publication PMC5353720 (2017).

Structures are written as SMILES.

For the test, the system named is PSA-aptamer (DNA, aptamer) TTTTTAATTAAAGCTCGCCATCAAATAGCTTT
Briefly: extended-gate field-effect transistor (AptaFET). The conditions noted are these: PBS, 1 mM MgCl2 (incubation); PBS (readout); 500 nM highest tested; shift 2.7 ± 0.3 mV against 22.3 mV on TFV-aptamer; immobilised aptamer.

Take `C[C@H](Cn1cnc2c(N)ncnc21)OCP(=O)(O)O`: the binding entry is reported as “no”.
